In patent US20190365785A1, “INHIBITION OF UNFOLDED PROTEIN RESPONSE FOR SUPPRESSING OR PREVENTING ALLERGIC REACTION TO FOOD” (Children's Hospital Medical Center, priority 2017, published 2019):

Legend:
CACO-2 cells [1] = experiment: Pro-Th2 cytokine expression by CACO-2 cells cultured with EYP, HC, MCT or sodium palmitate, with or without UPR inhibitors; assay type: cell-based, human
Experimental: To evaluate whether the UPR induces pro-Th2 gene expression in cultured human intestinal epithelial cells, we evaluated the abilities of three UPR inhibitors to inhibit the ability of egg yolk plasma (EYP), heavy cream (HC), medium chain triglycerides (MCT), or sodium palmitate to induce pro-Th2 cytokine expression by CACO-2 cells. CACO-2 cells were cultured for 24 hours with medium alone, EW, negative control, EYP, HC, MCT, or sodium palmitate (positive control for UPR induction), with or without the UPR inhibitors metformin, TUDCA, or 4-PBA. mRNA was prepared, reverse-transcribed, and quantitated by real time PCR. […] CACO-2 cells were obtained from the American Type Culture Collection (ATCC), catalog number HTB-37. These cells were grown in ATCC-formulated Eagle's Minimum Essential Medium (EMEM) (Cat. No. 30-2003), supplemented with fetal bovine serum (FBS) to a final concentration of 20% (ATCC® Cat. No. 30-2020) and Gibco antibiotic-antimycotic mixture. The cells were cultured in 6-well, 12-well, or 24-well culture plates to approximately 85%-90% confluency. On the day of experiment, EMEM medium was prepared with the appropriate concentrations of stimulants and/or inhibitors and added to the cells. Following the period of culture (usually 6 or 24 hours), the cells were washed and lysed, and total RNA was purified using PureLink™ RNA Mini Kit (Thermo Fisher Cat. No. 12183018A). The purified total RNA was used to generate cDNA using a High-Capacity cDNA Reverse Transcription Kit (Applied Biosystems, Cat. No. 4368814). Gene expression was analyzed using the qPCR method with a BioRad My iQ™ Detection system, and compared to the expression of the GAPDH housekeeping gene.

BALB/c mice = experiment: UPR inhibitors in drinking water or oral in mouse model of food (egg) allergy; assay type: in vivo; conditions: for intestinal UPR-related gene expression (except for BiP and ATF6) / intestinal pro-Th2 cytokine expression: 500 mg/kg/day in drinking water, FIG. 15A-15E; for hypothermia / mouse mast cell protease 1 (MMCP1) response / small intestinal UPR-related gene expression (except ATF6) / small intestinal pro-Th2 cytokine gene expression: mice induced to develop food allergy, 500 mg/kg in drinking water, FIG. 14
Experimental: BALB/c mice were induced to develop food allergy and were then treated with 500 mg/kg doses of metformin or TUDCA in drinking water.
BALB/c mice with established egg allergy were provided with drinking water that contained 500 mg/kg/day of metformin or TUDCA, or with ordinary drinking water. Both metformin and TUDCA suppressed intestinal UPR-related gene expression (except for BiP and ATF6) and pro-Th2 cytokine expression. Note the large increases in intestinal UPR-associated and pro-Th2 gene expression compared to naïve mice, and the partial suppression of UPR-associated and pro-Th2 genes by metformin and TUDCA (FIG. 15E).
BALB/c mice with established egg allergy were administered egg yolk plasma with or without 1 g/kg/day or 2 g/kg/day of metformin. Pro-Th2 cytokine and UPR-related gene expression was inhibited in skin (FIG. 16A) and lung (FIG. 16B).

CACO-2 cells [2] = experiment: CACO-2 cells cultured with egg yolk plasma or peanut extract, with or without lipase inhibitor Orlistat; assay type: cell-based, human; conditions: 24 hours, FIG. 3
Experimental: CACO-2 cells were cultured for 24 hours with medium alone, egg yolk plasma, or peanut extract, with or without the lipase inhibitor Orlistat. mRNA was extracted and reverse transcribed, after which UPR-associated gene expression and pro-Th2 cytokine gene expression were determined by real time PCR. […] CACO-2 cells were obtained from the American Type Culture Collection (ATCC), catalog number HTB-37. These cells were grown in ATCC-formulated Eagle's Minimum Essential Medium (EMEM) (Cat. No. 30-2003), supplemented with fetal bovine serum (FBS) to a final concentration of 20% (ATCC® Cat. No. 30-2020) and Gibco antibiotic-antimycotic mixture. The cells were cultured in 6-well, 12-well, or 24-well culture plates to approximately 85%-90% confluency. On the day of experiment, EMEM medium was prepared with the appropriate concentrations of stimulants and/or inhibitors and added to the cells. Following the period of culture (usually 6 or 24 hours), the cells were washed and lysed, and total RNA was purified using PureLink™ RNA Mini Kit (Thermo Fisher Cat. No. 12183018A). The purified total RNA was used to generate cDNA using a High-Capacity cDNA Reverse Transcription Kit (Applied Biosystems, Cat. No. 4368814). Gene expression was analyzed using the qPCR method with a BioRad My iQ™ Detection system, and compared to the expression of the GAPDH housekeeping gene.

[3] = system: human intestinal organoids (HIO); experiment: UPR-associated and pro-Th2 cytokine gene expression in human intestinal organoids injected with palmitate ± metformin or TUDCA; assay type: cell-based; conditions: lumen injection, FIG. 6A-6B
Experimental: HIO were produced from human peripheral blood pluripotent stem cells having a single UPR-associated gene deleted by CRISPR/Cas9. Applicant injected the lumens of HIO with culture medium or palmitate to induce increased UPR-associated and pro-Th2 cytokine gene expression, and further injected the HIO lumens with metformin or TUDCA. mRNA levels for the UPR-associated and pro-Th2 cytokine genes were determined by real-time PCR.

CACO-2 cells [4] = experiment: UPR-related and pro-Th2 cytokine gene expression in CACO-2 cells cultured with lipid-free peanut extract ± metformin; assay type: cell-based, human; conditions: CACO-2 cells with peanut extract, treated with metformin
Experimental: Because the UPR can be induced by multiple mechanisms that are associated with cell stress, including mechanisms that are not associated with lipids, Applicant investigated the ability of aqueous extracts of allergenic foods other than eggs and milk to induce UPR-associated and pro-Th2 cytokine gene expression, and the ability of metformin to suppress these responses. CACO-2 cells were cultured for 24 hours with medium alone or with a lipid-free peanut extract±metformin. mRNA was reverse-transcribed and gene expression was determined by real time PCR.
CACO-2 cells were obtained from the American Type Culture Collection (ATCC), catalog number HTB-37. These cells were grown in ATCC-formulated Eagle's Minimum Essential Medium (EMEM) (Cat. No. 30-2003), supplemented with fetal bovine serum (FBS) to a final concentration of 20% (ATCC® Cat. No. 30-2020) and Gibco antibiotic-antimycotic mixture. The cells were cultured in 6-well, 12-well, or 24-well culture plates to approximately 85%-90% confluency.
On the day of experiment, EMEM medium was prepared with the appropriate concentrations of stimulants and/or inhibitors and added to the cells. […] Gene expression was analyzed using the qPCR method with a BioRad My iQ™ Detection system, and compared to the expression of the GAPDH housekeeping gene.

CACO-2 cells [5] = experiment: Pro-Th2 cytokine protein production by CACO-2 cells (immunoprecipitation and Western blot); assay type: cell-based, human; conditions: 24 hr, Western blot, FIG. 4
Experimental: CACO-2 cells were cultured for 24 hr±palmitate or EYP. Cell lysates were prepared and normalized by protein concentration and direct α/β-tubulin Western blot. Lysates were serially incubated with anti-IL-25+protein G beads, anti-IL-33+protein G beads, and anti-TSLP+protein G beads. Laemmli buffer eluates from beads were analyzed by electrophoresis on a 4-20% polyacrylamide gel, blotted onto a PVDF membrane, and visualized by incubation with biotinylated anti-IL-25, anti-IL-33, or anti-TSLP mAb, followed by streptavidin-peroxidase and ECL WB substrate.

[6] = 24 hours, real time PCR, FIG. 1
[7] = summary statement of Applicant's results

## O=C(O)CCCc1ccccc1 [4-PBA, 4-phenylbutyrate]
CACO-2 cells [1]; [6]
  suppression of EYP-, HC-, MCT- and palmitate-induced expression of the pro-Th2 cytokines: strong suppression
BALB/c mice; [7]
  established food allergy: suppresses

## CCCCCCCCCCC[C@@H](C[C@@H]1OC(=O)[C@H]1CCCCCC)OC(=O)[C@H](CC(C)C)NC=O [Orlistat]
CACO-2 cells [2]
  UPR-related or pro-Th2 gene expression by peanut extract: no effect
  egg yolk plasma-induced UPR-associated and pro-Th2 cytokine gene expression: suppressed

## C[C@H](CCC(=O)NCCS(=O)(=O)O)[C@H]1CC[C@H]2[C@@H]3[C@@H](O)C[C@@H]4C[C@H](O)CC[C@]4(C)[C@H]3CC[C@]12C [TUDCA, tauroursodeoxycholic acid]
CACO-2 cells [1]; [6]
  suppression of EYP-, HC-, MCT- and palmitate-induced expression of the pro-Th2 cytokines: strong suppression
[3]
  palmitate-induced UPR-associated and pro-Th2 cytokine gene expression: suppressed
BALB/c mice; established egg allergy
  intestinal UPR-related gene expression (except for BiP and ATF6): suppressed
  intestinal pro-Th2 cytokine expression: suppressed
BALB/c mice
  hypothermia: suppression
  mouse mast cell protease 1 (MMCP1) response: suppression
  small intestinal UPR-related gene expression (except ATF6): suppression
  small intestinal pro-Th2 cytokine gene expression: suppression
BALB/c mice; [7]
  established food allergy: suppresses

## CN(C)C(=N)N=C(N)N [metformin]
CACO-2 cells [1]; [6]
  suppression of EYP-, HC-, MCT- and palmitate-induced expression of the pro-Th2 cytokines: strong suppression
CACO-2 cells [1]; summary, every allergen tested
  pro-Th2 cytokine gene induction by egg and milk lipid fractions and aqueous extracts of peanuts, walnut, codfish: suppresses pro-Th2 cytokine gene induction in every case
CACO-2 cells [4]; FIG. 2 A
  expression of UPR-related genes: reduced expression
CACO-2 cells [4]; FIG. 2 B
  expression of pro-Th2 cytokine genes: reduced expression
[3]
  palmitate-induced UPR-associated and pro-Th2 cytokine gene expression: suppressed
BALB/c mice; established egg allergy
  intestinal UPR-related gene expression (except for BiP and ATF6): suppressed
  intestinal pro-Th2 cytokine expression: suppressed
BALB/c mice; established egg allergy, egg yolk plasma, 1 g/kg/day or 2 g/kg/day oral, FIG. 16A
  Pro-Th2 cytokine and UPR-related gene expression in skin: inhibited
BALB/c mice; established egg allergy, egg yolk plasma, 1 g/kg/day or 2 g/kg/day oral, FIG. 16B
  Pro-Th2 cytokine and UPR-related gene expression in lung: inhibited
BALB/c mice
  hypothermia: suppression
  mouse mast cell protease 1 (MMCP1) response: suppression
  small intestinal UPR-related gene expression (except ATF6): suppression
  small intestinal pro-Th2 cytokine gene expression: suppression
BALB/c mice; [7]
  development of food allergy: suppresses
  established food allergy: suppresses

## CCCCCCCCCCCCCCCC(=O)[O-].[Na+] [sodium palmitate]
CACO-2 cells [1]; 24 hours, stimulant alone, real time PCR, FIG. 1
  induction of expression of the pro-Th2 cytokines: induced increased expression
CACO-2 cells [5]
  pro-Th2 cytokine protein expression (IL-25, IL-33, TSLP): increase
[3]
  UPR-dependent induction of pro-Th2 cytokine genes: stimulated
